Reference: PubChem BioAssay AID1117361 (Southern Research Institute, 2015)

Target: Protein Tat (Human immunodeficiency virus type 1 group M subtype B (isolate HXB2)) (UniProt P04608)
Test: HIV-1 Tat–TAR interaction blockers – biochemical, fluorescence polarization, FAM-labeled TAR RNA, counter-screen for Vif-APOBEC3G degradation inhibitor project, dose response (AID 1117361)
Settings: Tat-TAR RNA binding

Sequence of Protein Tat (Human immunodeficiency virus type 1 group M subtype B (isolate HXB2)) (P04608 whole entry, looked up): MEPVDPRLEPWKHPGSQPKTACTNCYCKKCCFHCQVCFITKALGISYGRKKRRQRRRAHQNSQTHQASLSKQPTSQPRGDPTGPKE

Row | Compound | IC50
1 | O=C(O)c1cc(N2N=C(C(F)(F)F)/C(=C/C=C/c3ccco3)C2=O)ccc1Cl | 0.616 µM
2 | O=C(O)c1[nH]c2ccc(Cl)cc2c1CC(=O)N1CCN(C(=O)c2ccco2)CC1 | 69.5 µM
3 | O=C1Cc2cccc(=O)c(O)c2C(=O)O1 | 87.7 µM
4 | O=[N+]([O-])c1cc(/C=N\Nc2nccs2)ccc1O | 5.68 µM
5 | O=C1CCCC(O)=C1N=Nc1cccc(C(=O)O)c1 | 13.7 µM
6 | O=C(O)CCc1ccc(S(=O)(=O)Nc2cc(C(F)(F)F)ccc2N2CCCC2)cc1 | 68.2 µM
7 | COc1ccccc1NC(=O)CSc1nnc(Cc2cc(=O)[nH]c(=O)[nH]2)n1-c1ccccc1 | 66.5 µM
8 | N#Cc1c(-c2ccco2)cc(-c2ccccc2)[nH]c1=O | 5 µM
9 | N#CC1=C(N)C2=C(N3CCCCC3)CCCC2C1(C#N)C#N (stereo not drawn) | 5.45 µM
10 | CCCNC1=C(C)C(=O)C2=C(C1=O)C(COC(N)=O)[C@]1(OC)C3NC3CN21 (stereo partly drawn) | 22.7 µM
11 | CNc1ccccc(-c2ccc3cc4c(cc3n2)OCO4)c1=O | 2.22 µM
12 | O=C(CSc1nc2ccccc2n1CCc1ccccc1)c1ccc(O)c(O)c1 | 8.81 µM
13 | COc1ccc(NC(=O)N2c3ccc(OC)cc3C(C)=CC2(C)C)cc1 | 3.29 µM
14 | Cc1cc(/C=N/Nc2ccc([N+](=O)[O-])cn2)c(C)n1-c1ccc(C(=O)O)cc1 | 5.58 µM
15 | O=C(/C(=N/N=C/c1ccc(O)c(O)c1O)c1ccccc1)c1ccccc1 | 35.2 µM
16 | O=C(NCc1ccccc1)c1ccc2nc(-c3ccco3)c(-c3ccco3)nc2c1 | 4.55 µM
17 | O=[n+]1c2c(n([O-])c3cc(F)c(F)cc31)CCCC2 | 11.1 µM
18 | COc1ccc2c(c1OC)C(=O)OC2CC(=O)c1ccc(O)c(O)c1 (stereo not drawn) | 80.5 µM
19 | Cc1ccc(-c2ccc(CCC(=O)O)n2NC(N)=S)cc1 | 17.8 µM
20 | O=C(Nc1nc(-c2ccco2)c(-c2ccco2)s1)C1CCC1 | 2.65 µM
21 | CCOC(=O)c1ccc(NS(=O)(=O)c2ccc3c(c2)oc(=O)n3C)cc1 | 0.996 µM
22 | Cc1cccc(/C=C(\C(=O)O)c2ccc(S(=O)(=O)N3CCCC3)s2)c1 | 98 µM
23 | COc1cc(NCCCCCCN)c2ncccc2c1OC | 56.7 µM

Row | Compound | IC50
24 | CCOC(=O)N1CCN(C(=O)c2ccc3c(SCC(=O)O)c4c(nc3c2)CCC4)CC1 | 7.65 µM
25 | CCCCC1=CC2=C(c3ccco3)C(=O)C(C)(OC(=O)c3ccc(OC)cc3)C(=O)C2=CN1CCCCO (stereo not drawn) | 29.3 µM
26 | O=C(Nc1cc(Cl)cc(Cl)c1)c1coc(=O)c(Br)c1 | 23.5 µM
27 | CC1=NN(C(N)=S)C(=O)C1N=Nc1cccc([N+](=O)[O-])c1 (stereo not drawn) | 99.2 µM
28 | CCOC(=O)C1CCCN(C(=O)c2cc(-c3ccco3)nc3ccccc23)C1 (stereo not drawn) | 27.8 µM
29 | Cc1ccc(NC(=O)CN2C(=O)N/C(=C/c3ccco3)C2=O)cc1 | 36 µM
30 | Cn1cccc1/C=C1\CCC/C(=C\c2cccn2C)C1=O | 17 µM
31 | CC1=NN(c2cccc(C(=O)O)c2)C(=O)/C1=C\C=C\c1ccco1 | 12 µM
32 | COc1cc(C(=O)NCC(c2ccco2)N2CCCC2)ccc1OCc1c(C)noc1C (stereo not drawn) | 93.5 µM
33 | O=[N+]([O-])c1cc(-c2ccc(/C=N/c3nc4ccccn4c3-c3ccco3)o2)ccc1Cl | 28.7 µM
34 | CCN(CC)C(=O)c1ccc(CS(=O)(=O)c2ccc(OC)cc2)o1 | 2.35 µM
35 | CCCN1C(=O)S/C(=C\c2ccc(N3CCOCC3)cc2C)C1=O | 1.92 µM
36 | Cc1nn(-c2ccccc2)c2sc(C(=O)N3CCc4ccccc4C3)cc12 | 40.1 µM
37 | CC(=C/C(=O)O)/C=C/c1ccc(Cl)o1 | 92 µM
38 | CCOC(=O)C(=O)NCc1ccc(/C=C2/N=C(C)C(C(=O)OCC)=C2O)o1 | 4.71 µM
39 | Clc1ccc(-c2cn3cccnc3n2)cc1Cl | 90.9 µM
40 | Cc1ccc(C(CC(=O)NCc2ccco2)c2ccccc2)c(O)c1 (stereo not drawn) | 30 µM
41 | CCCOc1ccc(N)cc1N | 59.5 µM
42 | Oc1ccc(NCc2ccccc2OCc2ccccc2)cc1 | 51.6 µM
43 | O=C1CC(Nc2ccc(N3CCOCC3)cc2)C(=O)N1c1ccccc1F (stereo not drawn) | 12.9 µM
44 | CCOC(=O)C1=C(c2ccccc2)N=c2s/c(=C\c3ccco3)c(=O)n2C1c1cccs1 (stereo not drawn) | 32.8 µM
45 | O=C(NC1CCC(C(=O)O)CC1)OCc1ccccc1 (stereo not drawn) | 79.8 µM
46 | CCOC(=O)c1cnn2c(N)c(C#N)nnc12 | 45.7 µM

Row | Compound | IC50
47 | N#Cc1c(N)sc(=S)c2c1CCCCC2 | 1.84 µM
48 | COc1cccc(N2C(=O)NC(=O)/C(=C/c3ccc([N+](=O)[O-])s3)C2=O)c1 | 34.3 µM
49 | CC(=O)OC1COC(n2ccc3ccccc32)C(OC(C)=O)C1OC(C)=O (stereo not drawn) | 88.1 µM
50 | Cc1ccc(C)n1/N=C1/NC(=O)CS1 | 0.882 µM
51 | FC(F)(F)c1cc(-c2ccco2)nc(NCc2ccco2)n1 | 28.5 µM
52 | CN1C(=O)/C(=C/c2ccco2)SC1=Nc1cccc(C(=O)O)c1 | 7.93 µM
53 | O=[n+]1c2c(n([O-])c3cc(Cl)ccc31)CCCC2 | 42.9 µM
54 | CC1CCCN(Cc2c(O)ccc3c2O/C(=C\c2ccco2)C3=O)C1 (stereo not drawn) | 5.6 µM
55 | CCN(CC)S(=O)(=O)c1cccc(C(=O)N/N=C/c2ccc(O)c(O)c2O)c1 | 92.7 µM
56 | Cn1nc(-c2ccc(Cl)cc2)c2cc(C(=O)N3CCN(c4ccccc4)CC3)sc21 | 12.6 µM
57 | Cc1cnnc2ccc3c(no[n+]3[O-])c12 | 36.5 µM
58 | O=C(NCCc1c[nH]c2ccccc12)c1ccc(S(=O)(=O)NCc2ccco2)cc1 | 48.3 µM
59 | S=c1[nH]nc(COc2ccc3c(c2)OCO3)n1-c1ccccc1 | 1.03 µM
60 | COC(=O)CCC(=O)OC1(C)C(=O)C2=CN(CCCOC(C)C)C(c3ccc(OC)cc3)=CC2=C(Br)C1=O (stereo not drawn) | 19.1 µM
61 | Oc1ccc(/C=N/NC2=NCCCCC2)c(O)c1 | 25.1 µM
62 | O=C1NC(=S)NC1=Cc1ccco1 | 35.7 µM
63 | Cn1cnnc1SCC(=O)Nc1ncc([N+](=O)[O-])s1 | 58.2 µM
64 | NC(=S)N=Nc1c(O)cc(O)c2[nH]c(=O)ccc12 | 37.2 µM
65 | COc1ccc2c(c1)n([O-])c1c([n+]2=O)CCC1 | 52.1 µM
66 | O=[N+]([O-])c1ccc(N/N=C/c2ccc(O)c(O)c2O)c(S(=O)(=O)N2CCOCC2)c1 | 34 µM
67 | O=C(O)c1ccc2c(c1)[C@@H]1C=CC[C@@H]1[C@H](c1ccccn1)N2 | 7.1 µM
68 | Cc1ccc(/C=C/C2=Cc3c(sc(NC(=O)CSc4n[nH]c(N)n4)c3C#N)C(C)(C)C2)o1 | 3.04 µM
69 | CCN(C(=O)c1coc(=O)c(Br)c1)c1ccc2c(c1)OCO2 | 1.17 µM

Row | Compound | IC50
70 | O=C(O)c1cccc2c1NC(C(=O)O)C1CC(Sc3ccccc3[N+](=O)[O-])C(Cl)C21 (stereo not drawn) | 1.91 µM
71 | COC(=O)c1ccc(=O)c2nc3/c(=C/O)c(O)cc(=O)c3[nH]c12 | 20.3 µM
72 | CCCC(=O)N(CCc1ccc(OC)cc1)Cc1nc2ccccc2c(=O)[nH]1 | 71.8 µM
73 | CCC(=O)NC1=C(Cl)C(=O)C(NC(=O)CC)=C(Cl)C1=O | 79.8 µM
74 | COCCNC(=O)COC(=O)c1[nH]c(C)c(C(C)=O)c1C | 35.4 µM
75 | O=C(CSc1nc(-c2ccco2)cc(C(F)(F)F)n1)N1CCc2ccccc2C1 | 35.2 µM
76 | O=C(C1CCCO1)N1CCC2(CC1)OCCO2 (stereo not drawn) | 5.55 µM
77 | CNc1c(C(=O)O)ccc2c1C(=O)c1ccccc1C2=O | 21.9 µM
78 | O=C(O)c1ccc(-n2cccc2/C=C2/NC(=O)N(c3ccccc3)C2=O)cc1 | 15.7 µM
79 | CN(C)c1ncc(C2=C(Cl)C(=O)C(N3CCCC3)=C(Cl)C2=O)s1 | 1.54 µM
80 | O=C(Nc1ccc(Br)cn1)c1coc(=O)c(Br)c1 | 79.5 µM
81 | Cc1cc(-c2csc(NC(=O)c3ccc(C#N)cc3)n2)c(C)n1Cc1ccco1 | 16.7 µM
82 | CN(C(=S)Nc1cccnc1)c1ccc(O)cc1 | 27 µM
83 | Cc1ccccc1Cc1c(C)nc2c(C(=O)NCc3ccc4c(c3)OCO4)cnn2c1C | 1.06 µM
84 | O=C(OCC1O[C@@H](OC(=O)c2cc(O)c(O)c(O)c2)[C@@H](OC(=O)c2cc(O)c(O)c(O)c2)[C@@H](OC(=O)c2cc(O)c(O)c(O)c2)[C@@H]1OC(=O)c1cc(O)c(O)c(O)c1)c1cc(O)c(O)c(O)c1 (stereo partly drawn) | 25.4 µM
85 | CC(=O)N1CCN(c2nc(-c3ccco3)c3c(c2C#N)CC(C)(C)SC3)CC1 | 58.8 µM
86 | O=C(CSc1nnnn1-c1ccccc1)Nc1ncc2c(n1)CC(c1ccco1)CC2=O (stereo not drawn) | 58.5 µM
87 | CCc1ccc(NC(=O)N(CCN2CCOCC2)Cc2ccc3c(c2)CCCN3CC)cc1 | 74.5 µM
88 | Cc1ccc(C=C2C(Cl)=C(Cl)C(Cl)=C2Cl)cc1 | 4.67 µM
89 | O=c1[nH]nc(CNc2ccc(O)cc2)c2ccccc12 | 33.7 µM
90 | CCn1cc(Br)c(C(=O)Nc2cccc(SC)c2)n1 | 1.44 µM
91 | COc1cc(OC)c2c(O)c3c(c(-c4c5c(c(O)c6c(OC)cc(OC)cc46)CO[C@@H](C)[C@H]5O)c2c1)[C@H](O)[C@H](C)OC3 | 30.8 µM
92 | C=CCNc1nc2ccccc2nc1NS(=O)(=O)c1cccs1 | 45 µM

Row | Compound | IC50
93 | O=C1c2ccccc2C(=O)N1/N=C/c1ccc(O)c(O)c1O | 14.7 µM
94 | Cc1ccc(/C=C/C(=O)Nc2ncc(C)s2)o1 | 16 µM
95 | Oc1ccc(N=Cc2ccc(OCc3ccccc3)cc2)cc1 | 47.5 µM
96 | CCOc1cccc(=O)c2c(C)n(C)c(C)c12 | 55.2 µM
97 | CN(C)c1cc(Cl)c2nonc2c1N | 87.2 µM
98 | Cc1ccc(NC(=O)COc2ccc(/C=N/NC(=O)CSCc3ccccc3)cc2)cc1 | 16.3 µM
99 | NS(=O)(=O)c1ccc(N=Nc2c[nH]c(=O)c(O)c2)cc1 | 9.47 µM
100 | O=C(O)Cc1cccc(=O)c(O)c1C(=O)O | 54.7 µM
101 | Cc1cc(C)cc(NC(=O)CSc2nc3c(c(=O)n2C)SC(C)C3)c1 (stereo not drawn) | 56.9 µM
102 | CC(=O)NN1C(=O)/C(=C/c2ccc(Br)o2)SC1=S | 36.2 µM
103 | CN(C)c1ccc(N=C/C=C2/N(C)c3ccccc3C2(C)C)cc1 | 64.4 µM
104 | Cc1c2ccccc2nc2c(F)c(N(C)C)c(F)c(F)c12 | 6.51 µM
105 | O=C1CC(c2ccco2)CC(O)=C1C=Nc1cc(Cl)cc(Cl)c1 (stereo not drawn) | 9.58 µM
106 | N#CC1=C(N)OC2=C(CCC/C2=C/c2ccoc2)C1c1ccoc1 (stereo not drawn) | 7.35 µM
107 | O=C(O)c1cccc2cccc(-c3c4ccc(=O)c(O)c-4oc4c(O)c(O)ccc34)c12 | 3.38 µM
108 | CCNC(=O)COC(=O)c1cc(-c2ccco2)nc2ccccc12 | 8.09 µM
109 | COC(=O)\C(C(C)=O)=C(/C=C/C=C/C=C/N(C)C)N(C)C | 56.3 µM
110 | CCOC(=O)Cc1cc(=O)n2[nH]c(C)cc2n1 | 78.3 µM
111 | CCN(CC)c1ccc(/C=N/n2c(C)cc(C)cc2=O)cc1 | 5.27 µM
112 | Cc1cccc(N2C(=O)NC(=O)/C(=C/c3cc4c(cc3[N+](=O)[O-])OCO4)C2=O)c1 | 0.906 µM
113 | Cc1ccc(C)c(-n2c(Cc3cc(=O)[nH]c(=O)[nH]3)nnc2SC(C)C)c1 | 77 µM
